# Test results taken from patent publication US11213508B2, “Compositions comprising urolithins and uses thereof for the stimulation of insulin secretion” (Centre National de la Recherche Scientifique (CNRS), priority 2013, dated 2022).
# Entries after “also recorded” stand apart in the source; their conditions may differ.
# Legend:
# [1] = test system: INS-1 insulin-secreting β-cells; test: Glucose (8.3 mmol·L^−1)-stimulated insulin secretion in INS-1 cells (HTRF insulin assay); type: cell-based; conditions: for ability to amplify glucose-stimulated insulin secretion: blind screening, 2 and 20 μM; for % control response (glucose-stimulated insulin secretion): control = glucose alone; for degree of stimulation of insulin secretion: summary over the different insulin secretion conditions in INS-1 cells, 20 μmol·L^−1
# Description: Cells were seeded in 24-well plates (4×10^5 cells per well) and were used for experiments after 5 days of culture.
# (§1) Cells were incubated for 1 h (5% CO2, 37° C.) in KRB medium containing 8.3 mmol·L^−1 glucose (glucose-stimulated secretion) in the presence or absence of the compounds tested. At the end of the 1 h incubation period, the medium was sampled and stored at −20° C. until the insulin assay. Insulin concentration in cell supernatants was determined using the homogeneous time resolved fluorescence technology (HTRF), according to the manufacturer's instructions (HTRF insulin assay kit, Cisbio International, Bagnols-sur-Ceze, France). Briefly, two anti-insulin antibodies were used; one labelled with Eu^3+-Cryptate and one labelled with XL665 recognizing distinct epitopes. When these two fluorophores bind to insulin molecules, the two antibodies come into close proximity, allowing fluorescence resonance energy transfer (FRET) to occur between the Eu^3+-Cryptate and the XL665. This FRET increases proportionally with the insulin concentrations. All the experiments were performed at least in quadruplicate.
# (§2) For the determination of insulin secretion, cells were incubated for 1 h (5% CO2, 37° C.) in KRB medium containing either 1.4 mmol·L^−1 glucose (low-glucose) or 8.3 mmol·L^−1 glucose (glucose-stimulated secretion) in the presence or absence of the compounds tested. At the end of the 1 h incubation period, mediums were sampled and stored at −20° C. until the insulin assay.
# [2] = test system: INS-1 insulin-secreting β-cells; test: Insulin secretion in INS-1 cells under low-glucose (1.4 mmol·L^−1) condition; type: cell-based; conditions: 1.4 mmol·L^−1 glucose; maximal concentration tested 20
# Description: (§3) The insulin-secreting cell line INS-1 (a gift from Professor C. B. Wollheim) was cultured in RPMI-1640, supplemented with 10% fetal calf serum (FCS), 100 U·mL^−1 penicillin, 100 μg·mL^−1 streptomycin, 2 mmol·L^−1 L-glutamine, 10 mmol·L^−1 HEPES, 1 mmol·L^−1 sodium pyruvate, and […] 2-mercaptoethanol, as previously described by Youl et al. (2010). Cells were seeded in 24-well plates (4×10^5 cells per well) and were used for experiments after 5 days of culture.
# as §1, with “Before the treatment, RPMI medium was removed and the cells were washed twice with HEPES-balanced Krebs-Ringer bicarbonate buffer (KRB) containing (in mmol·L^−1): 123 NaCl, 5.4 KCl, 1.3 KH2PO4, 2.7 MgSO4, 2.9 CaCl2, 5 NaHCO3 and 20 HEPES, pH 7.5, with 2 g·L^−1 bovine serum albumin (KRB/BSA). Cells” for “Cells”
# as §2, with “Material and methods were the same as described in example 1. For” for “For”, “assay. Insulin concentration in cell supernatants was determined as described in Example 1.” for “assay.”
# [3] = test system: INS-1 insulin-secreting β-cells; test: Glibenclamide-stimulated insulin secretion in INS-1 cells; type: cell-based; conditions: for stimulation of insulin secretion in the presence of glibenclamide: 0 to 20 μmol·L^−1
# Description: as §3
# as §1, with “Before the treatment, RPMI medium was removed and the cells were washed twice with HEPES-balanced Krebs-Ringer bicarbonate buffer (KRB) containing (in mmol·L^−1): 123 NaCl, 5.4 KCl, 1.3 KH2PO4, 2.7 MgSO4, 2.9 CaCl2, 5 NaHCO3 and 20 HEPES, pH 7.5, with 2 g·L^−1 bovine serum albumin (KRB/BSA). Cells” for “Cells”
# Material and methods were the same as described in example 1. For the determination of insulin secretion, cells were incubated for 1 h (5% CO2, 37° C.) in KRB medium containing 1.4 mmol·L^−1 glucose (low-glucose condition) and 0.01 μmol·L^−1 glibenclamide (glibenclamide-stimulated secretion), in the presence or absence of urolithins. At the end of the 1 h incubation period, the medium was sampled and stored at −20° C. until the insulin assay. Insulin concentration in cell supernatants was determined as described in Example 1.
# [4] = test system: rat isolated perfused pancreas; test: Insulin secretion in the rat isolated perfused pancreas; conditions: for AUC of insulin produced above the basal level: urolithins 10 μM
# Description: Pancreas was isolated from male Wistar rats of 250-300 g body weight under pentobarbital anaesthesia (60 mg/kg i.p.). Previously described technique (Cadene et al., 1996) was used to isolate the pancreas from neighboring tissues. The organ was then transferred into a plastic chamber maintained at 37.5° C. Perfusion medium was Krebs-Ringer bicarbonate buffer containing 2 g/l bovine serum albumin and 5 mmol·L^−1 (non stimulant condition) or 8.3 mmol·L^−1 (stimulant condition) glucose, and continuously bubbled with a mixture of 95% O2/5% CO2. Infusion pressure was selected to provide a pancreatic outflow of 2.5 ml/min. The first sample was taken 30 min after initiation of perfusion to allow for an adaptation period. Two additional control samples were collected 10 and 15 min later, immediately followed by switching to the same buffer containing urolithins (10 μmol·L^−1). Pancreatic effluents were then collected at the following times (minutes): 17, 18, 19, 20, 21, 27, 32, 42. Pancreas was then washed using the same buffer in the absence of urolithin. Two additional samples were taken 5 and 15 min after urolithin withdrawal.
# All samples were collected for 1 min allowing determinations of pancreatic effluent output, and immediately frozen for insulin assay (Cisbio HTRF method). Insulin output rate (ng/min) was calculated by multiplying the hormone concentration (ng/ml) in the effluent by the corresponding flow rate (ml/min).
# Amplitude of stimulation of insulin secretion by urolithins was estimated by calculating the Area Under the Curve (AUC) of insulin produced above the basal level (trapezoidal rule). Before administration of urolithins, insulin secretion levels were 3.39±0.58 ng/min (n=14 pancreases) and 67.5±7.80 ng/min (n=15 pancreases), for 5 mmol·L^−1 and 8.3 mmol·L^−1 glucose, respectively.
# [5] = compound 2 μM, 8.3 mmol·L^−1 glucose
# [6] = compound 20 μM, 8.3 mmol·L^−1 glucose
# [7] = 1.4 mmol·L^−1 glucose + 0.01 μmol·L^−1 glibenclamide
SMILES,ability to amplify glucose-stimulated insulin secretion ([1]; 8.3 mmol·L^−1 glucose),"% control response (glucose-stimulated insulin secretion) [1, 5] [%]","% control response (glucose-stimulated insulin secretion) [1, 6] [%]",degree of stimulation of insulin secretion [1],stimulation of insulin secretion in low-glucose condition [2],stimulation of insulin secretion in the presence of glibenclamide [3],"concentration at which maximal effect was obtained [3, 7] [µmol/L]",AUC of insulin produced above the basal level [4],"active concentration ([1]; glucose-stimulated secretion condition, active at this concentration only) [µM]","maximal response, stimulation as compared to glibenclamide alone [3, 7]","stimulation of insulin secretion at the maximal concentration tested ([1]; 8.3 mmol·L^−1 glucose, control 100% = glucose alone)","EC50 [3, 7] [µM]","stimulation of glibenclamide-induced response ([3]; urolithin 5 μmol·L^−1, 1.4 mmol·L^−1 glucose + 0.01 μmol·L^−1 glibenclamide)","effect on insulin secretion under non-stimulating glucose condition ([4]; 10 μmol·L^−1, 5 mmol·L^−1 glucose)","effect on insulin secretion under stimulating glucose condition ([4]; 10 μmol·L^−1, 8.3 mmol·L^−1 glucose)",lowest concentration inducing some stimulation of insulin secretion ([4]; stimulating glucose condition) [µM]
"O=c1oc2cc(O)ccc2c2ccc(O)cc12 [Urolithin A, urolithin A]",able to amplify,109.82,162.50,about 160%,did not significantly stimulate insulin secretion; also recorded: does not stimulate insulin secretion,concentration-dependently stimulated insulin secretion,5,2609.5 ng insulin secreted for 32 min,–,–,–,–,–,–,–,–
"O=c1oc2cc(O)ccc2c2ccccc12 [Urolithin B, urolithin B]",able to amplify,108.77,145.61,140%,induced some stimulation,concentration-dependently stimulated insulin secretion,–,142.0 ng insulin secreted for 32 min,20,130%,–,–,–,–,–,–
"O=c1oc2cc(O)ccc2c2cc(O)c(O)cc12 [Urolithin C, urolithin C]",able to amplify,107.14,194.64,185-200%,induced some stimulation,concentration-dependently stimulated insulin secretion,–,9160.0 ng insulin secreted for 32 min,–,about 200%,about 200%,~5,about 150%,had no effect,induced a major amplification,1
"O=c1oc2c(O)c(O)ccc2c2cc(O)c(O)cc12 [Urolithin D, urolithin D]",able to amplify,88.79,158.62,135-155%,induced some stimulation,concentration-dependently stimulated insulin secretion,–,387.5 ng insulin secreted for 32 min,–,–,–,–,–,–,–,–
